# Measurements: patent US20070021419A1, “2-Aminophenyl-4-phenylpyrimidines as kinase inhibitors” (Cyclacel Limited, priority 2003, published 2007)
# Columns and labels:
# CDK2/cyclin E = CDK2/cyclin E (Homo sapiens, UniProt P24941); assay: Kinase assay, radioactive phosphate incorporation, CDK2/cyclin E; assay type: biochemical; settings: 100 μM ATP, 30° C.; read-out: Kinase inhibition IC50 CDK2/cyclin E
# Protocol: (§1) The compounds from the examples above were investigated for their ability to inhibit the enzymatic activity of various protein kinases. This was achieved by measurement of incorporation of radioactive phosphate from ATP into appropriate polypeptide substrates. Recombinant protein kinases and kinase complexes were produced or obtained commercially. Assays were performed using 96-well plates and appropriate assay buffers (typically 25 mM β-glycerophosphate, 20 mM MOPS, 5 MM EGTA, 1 mM DTT, 1 mM Na3VO3, pH 7.4), into which were added 2-4 μg of active enzyme with appropriate substrates. The reactions were initiated by addition of Mg/ATP mix (15 mM MgCl2+100 μM ATP with 30-50 kBq per well of [γ-^32P]-ATP) and mixtures incubated as required at 30° C. Reactions were stopped on ice, followed by filtration through p81 filterplates or GF/C filterplates (Whatman Polyfiltronics, Kent, UK). After washing 3 times with 75 mM aq orthophosphoric acid, plates were dried, scintillant added and incorporated radioactivity measured in a scintillation counter (TopCount, Packard Instruments, Pangbourne, Berks, UK). Compounds for kinase assay were made up as 10 mM stocks in DMSO and diluted into 10% DMSO in assay buffer.
# [1] = system: transformed human cell lines (A549, HT29, Saos-2); assay: 72-h MTT cytotoxicity assay, average of cell lines; assay type: cell-based; settings: read-out: 72-h MTT IC50 Average, average of A549, HT29, Saos-2
# Protocol: (§2) The compounds from the examples above were subjected to a standard cellular proliferation assay using human tumour cell lines obtained from the ATCC (American Type Culture Collection, 10801 University Boulevard, Manessas, Va. 20110-2209, USA). Standard 72-h MTT (thiazolyl blue; 3-[4,5-dimethylthiazol-2-yl]-2,5-diphenyltetrazolium bromide) assays were performed. In short: cells were seeded into 96-well plates according to doubling time and incubated overnight at 37° C. Test compounds were made up in DMSO and a 1/3 dilution series prepared in 100 μL cell media, added to cells (in triplicates) and incubated for 72 ho at 37° C. MTT was made up as a stock of 5 mg/mL in cell media and filter-sterilised. Media was removed from cells followed by a wash with 200 μL PBS. MTT solution was then added at 20 μL per well and incubated in the dark at 37° C. for 4 h. MTT solution was removed and cells again washed with 200 μL PBS. MTT dye was solubilised with 200 μL per well of DMSO with agitation.
# Saos-2 = assay: 72-h MTT cytotoxicity assay, Saos-2; assay type: cell-based; settings: Homo sapiens, read-out: 72-h MTT IC50 Saos-2, Saos-2 cell line
# Protocol: as §2
# HT29 = assay: 72-h MTT cytotoxicity assay, HT29; assay type: cell-based; settings: Homo sapiens, HT-29, read-out: 72-h MTT IC50 HT29, HT29 cell line
# Protocol: as §2
# A549 = assay: 72-h MTT cytotoxicity assay, A549; assay type: cell-based; settings: Homo sapiens, read-out: 72-h MTT IC50 A549, A549 cell line
# Protocol: as §2
# CDK9/cyclin T1 = CDK9/cyclin T1 (Homo sapiens, UniProt P50750); assay: Kinase assay, radioactive phosphate incorporation, CDK9/cyclin T1; assay type: biochemical; settings: 100 μM ATP, 30° C.; read-out: Kinase inhibition IC50 CDK9/cyclin T1
# CDK9/cyclin T1, sequence (P50750 whole entry, species assumed): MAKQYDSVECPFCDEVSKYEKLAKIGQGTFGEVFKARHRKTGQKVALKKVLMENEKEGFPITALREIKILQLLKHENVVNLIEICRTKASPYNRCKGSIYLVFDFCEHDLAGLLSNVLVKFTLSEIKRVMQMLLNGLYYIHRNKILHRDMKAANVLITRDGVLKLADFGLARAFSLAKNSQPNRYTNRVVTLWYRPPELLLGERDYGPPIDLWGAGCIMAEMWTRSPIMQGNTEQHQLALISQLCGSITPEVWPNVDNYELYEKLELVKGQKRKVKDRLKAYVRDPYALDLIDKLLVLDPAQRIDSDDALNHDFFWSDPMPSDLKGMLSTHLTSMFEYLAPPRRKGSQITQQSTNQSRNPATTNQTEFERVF
# CDK9/cyclin T1, sequence (O60563 whole entry partner, species assumed): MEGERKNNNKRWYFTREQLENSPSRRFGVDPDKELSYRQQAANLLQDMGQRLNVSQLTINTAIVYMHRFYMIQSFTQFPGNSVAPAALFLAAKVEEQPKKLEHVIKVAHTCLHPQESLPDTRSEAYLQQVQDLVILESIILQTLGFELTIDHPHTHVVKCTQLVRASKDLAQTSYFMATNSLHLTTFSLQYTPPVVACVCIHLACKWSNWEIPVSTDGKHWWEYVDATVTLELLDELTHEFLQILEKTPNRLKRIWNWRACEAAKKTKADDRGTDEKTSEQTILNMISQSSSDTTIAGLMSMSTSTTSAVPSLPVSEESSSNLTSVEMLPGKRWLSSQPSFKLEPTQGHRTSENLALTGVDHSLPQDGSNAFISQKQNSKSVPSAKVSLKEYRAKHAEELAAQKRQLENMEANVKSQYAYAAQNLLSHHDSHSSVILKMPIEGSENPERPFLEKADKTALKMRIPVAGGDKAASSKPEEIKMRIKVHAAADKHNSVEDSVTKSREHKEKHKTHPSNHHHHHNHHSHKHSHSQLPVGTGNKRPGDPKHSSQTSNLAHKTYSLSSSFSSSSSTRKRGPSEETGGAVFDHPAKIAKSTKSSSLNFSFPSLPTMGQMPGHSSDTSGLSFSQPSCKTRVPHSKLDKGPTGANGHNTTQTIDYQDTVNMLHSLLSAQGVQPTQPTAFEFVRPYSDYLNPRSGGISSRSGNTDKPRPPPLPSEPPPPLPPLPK
# Protocol: as §1
# GSK3β = GSK3β (Homo sapiens, UniProt P49841); assay: Kinase assay, radioactive phosphate incorporation, GSK3β; assay type: biochemical; settings: 100 μM ATP, 30° C.; read-out: Kinase inhibition IC50 GSK3β
# GSK3β, sequence (P49841 whole entry, species assumed): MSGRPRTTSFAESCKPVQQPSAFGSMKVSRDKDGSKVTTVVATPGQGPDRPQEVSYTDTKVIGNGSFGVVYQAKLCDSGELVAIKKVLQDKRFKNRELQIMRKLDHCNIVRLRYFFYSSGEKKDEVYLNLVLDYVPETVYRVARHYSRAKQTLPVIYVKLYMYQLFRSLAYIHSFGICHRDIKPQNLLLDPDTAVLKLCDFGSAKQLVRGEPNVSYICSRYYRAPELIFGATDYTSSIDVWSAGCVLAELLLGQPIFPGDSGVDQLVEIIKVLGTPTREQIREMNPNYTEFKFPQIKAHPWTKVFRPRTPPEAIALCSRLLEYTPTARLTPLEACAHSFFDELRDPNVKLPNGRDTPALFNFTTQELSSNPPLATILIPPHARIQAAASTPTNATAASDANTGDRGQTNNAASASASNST
# Protocol: as §1
# CDK7/cyclin H = CDK7/cyclin H (Homo sapiens, UniProt P50613); assay: Kinase assay, radioactive phosphate incorporation, CDK7/cyclin H; assay type: biochemical; settings: 100 μM ATP, 30° C.; read-out: Kinase inhibition IC50 CDK7/cyclin H
# CDK7/cyclin H, sequence (P50613 whole entry, species assumed): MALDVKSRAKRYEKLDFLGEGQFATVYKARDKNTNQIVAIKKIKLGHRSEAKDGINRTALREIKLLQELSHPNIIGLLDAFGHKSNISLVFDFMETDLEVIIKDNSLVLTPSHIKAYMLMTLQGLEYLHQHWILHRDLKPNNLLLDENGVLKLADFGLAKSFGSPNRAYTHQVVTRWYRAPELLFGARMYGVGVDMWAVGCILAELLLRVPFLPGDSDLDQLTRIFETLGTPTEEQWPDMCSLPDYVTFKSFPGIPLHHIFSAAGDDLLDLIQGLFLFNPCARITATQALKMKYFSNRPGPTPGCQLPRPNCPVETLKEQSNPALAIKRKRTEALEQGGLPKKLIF
# CDK7/cyclin H, sequence (P51946 whole entry partner, species assumed): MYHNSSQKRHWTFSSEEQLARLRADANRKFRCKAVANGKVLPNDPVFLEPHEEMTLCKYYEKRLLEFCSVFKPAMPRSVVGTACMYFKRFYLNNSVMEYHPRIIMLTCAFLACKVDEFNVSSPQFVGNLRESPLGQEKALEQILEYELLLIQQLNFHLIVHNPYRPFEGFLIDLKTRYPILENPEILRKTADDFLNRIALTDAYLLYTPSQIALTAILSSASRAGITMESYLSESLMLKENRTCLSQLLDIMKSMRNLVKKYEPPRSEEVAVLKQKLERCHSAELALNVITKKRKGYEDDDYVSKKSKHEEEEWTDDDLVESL
# Protocol: as §1
Structure (SMILES),IC50 (CDK2/cyclin E),IC50 (CDK9/cyclin T1),IC50 (GSK3β),IC50 (CDK7/cyclin H),IC50 [1],IC50 (Saos-2),IC50 (HT29),IC50 (A549)
"O=[N+]([O-])c1cccc(-c2ccnc(Nc3ccc(O)cc3)n2)c1 [Compound 1, 4-[4-(3-Nitro-phenyl)-pyrimidin-2-ylamino]-phenol]",1.6 µM,–,–,–,27.2 ± 15.3 µM,44.2 µM,22.9 µM,14.5 µM
"COCCOc1ccc(Nc2nccc(-c3cccc(N)c3)n2)cc1 [Compound 3, [4-(3-Amino-phenyl)-pyrimidin-2-yl]-[4-(2-methoxy-ethoxy)-phenyl]-amine]",–,0.018 µM,–,–,3.5 ± 1.7 µM,5.2 µM,3.6 µM,1.8 µM
"CC(=O)N(C)c1cccc(-c2ccnc(Nc3ccc(O)cc3)n2)c1 [Compound 12, N-{3-[2-(4-Hydroxy-phenylamino)-pyrimidin-4-yl]-phenyl}-N-methyl-acetamide]",0.24 µM,–,–,–,–,–,–,–
"Nc1cccc(-c2ccnc(Nc3cccc([N+](=O)[O-])c3)n2)c1 [Compound 19, [4-(3-Amino-phenyl)-pyrimidin-2-yl]-(3-nitro-phenyl)-amine]",–,–,0.055 µM,2.5 µM,–,–,–,–
"Oc1cccc(Nc2nccc(-c3ccc(Cl)c(Cl)c3)n2)c1 [Compound 22, 3-[4-(3,4-Dichloro-phenyl)-pyrimidin-2-ylamino]-phenol]",–,–,–,–,76.2 ± 29.3 µM,100 µM,85.2 µM,43.5 µM
"CCN(C(C)=O)c1cccc(-c2ccnc(Nc3ccc([N+](=O)[O-])cc3)n2)c1 [Compound 24, N-Ethyl-N-{3-[2-(4-nitro-phenylamino)-pyrimidin-4-yl]-phenyl}-acetamide]",–,–,–,–,62.7 ± 48.6 µM,80.4 µM,7.8 µM,100 µM
"O=[N+]([O-])c1cccc(Nc2nccc(-c3ccc(Cl)c(Cl)c3)n2)c1 [Compound 31, [4-(3,4-Dichloro-phenyl)-pyrimidin-2-yl]-(3-nitro-phenyl)-amine]",–,–,4.5 µM,–,–,–,–,–
"O=[N+]([O-])c1ccc(Nc2nccc(-c3cccc(Cn4cncn4)c3)n2)cc1 [Compound 41, (4-Nitro-phenyl)-[4-(3-[1,2,4]triazol-1-ylmethyl-phenyl)-pyrimidin-2-yl]-amine]",0.42 µM,0.92 µM,0.043 µM,5.5 µM,–,–,–,–
"COc1ccc(Nc2nccc(-c3ccc(Cl)c(Cl)c3)n2)cn1 [Compound 49, [4-(3,4-Dichloro-phenyl)-pyrimidin-2-yl]-(6-methoxy-pyridin-3-yl)-amine]",–,–,5.2 µM,–,–,–,–,–
"COc1ccc(OC)c(-c2ccnc(Nc3ccc(OC)nc3)n2)c1 [Compound 52, [4-(2,5-Dimethoxy-phenyl)-pyrimidin-2-yl]-(6-methoxy-pyridin-3-yl)-amine]",–,16 µM,–,–,15.4 ± 4.9 µM,14.9 µM,10.8 µM,20.5 µM
"O=[N+]([O-])c1cccc(Nc2nccc(-c3cccc(O)c3)n2)c1 [Compound 55, 3-[2-(3-Nitro-phenylamino)-pyrimidin-4-yl]-phenol]",0.04 µM,0.03 µM,0.003 µM,0.31 µM,–,–,–,–
"CC(=O)N(Cc1cccc(-c2ccnc(Nc3cccc([N+](=O)[O-])c3)n2)c1)C(C)C [Compound 78, N-Isopropyl-N-{3-[2-(3-nitro-phenylamino)-pyrimidin-4-yl]-benzyl}-acetamide]",–,–,–,–,3.4 ± 2.2 µM,5.4 µM,0.96 µM,3.7 µM
"CN(Cc1cccc(-c2ccnc(Nc3cccc([N+](=O)[O-])c3)n2)c1)S(=O)(=O)c1cccc([N+](=O)[O-])c1 [Compound 85, N-Methyl-3-nitro-N-{3-[2-(3-nitro-phenylamino)-pyrimidin-4-yl]-benzyl}-benzenesulfonamide]",–,0.4 µM,–,–,44 ± 33.3 µM,44.6 µM,10.4 µM,76.9 µM

# Further lines, with some results ahead:
IC50 (CDK2/cyclin E),IC50 (CDK9/cyclin T1),IC50 (GSK3β),IC50 (CDK7/cyclin H),Structure (SMILES),IC50 [1],IC50 (Saos-2),IC50 (HT29),IC50 (A549)
0.24 µM,0.07 µM,0.07 µM,2.1 µM,Oc1cccc(Nc2nccc(-c3cccc(O)c3)n2)c1 [Compound 56],–,–,–,–
0.21 µM,0.18 µM,0.054 µM,1.3 µM,"Oc1cccc(-c2ccnc(Nc3cccc(F)c3)n2)c1 [Compound 57, 3-[2-(3-Fluoro-phenylamino)-pyrimidin-4-yl]-phenol]",–,–,–,–
1.6 µM,0.26 µM,0.51 µM,3.8 µM,"CC(=O)Nc1cccc(-c2ccnc(Nc3cccc(CO)c3)n2)c1 [Compound 60, N-{3-[2-(3-Hydroxymethyl-phenylamino)-pyrimidin-4-yl]-phenyl}-acetamide]",–,–,–,–
1.3 µM,–,0.57 µM,–,"Cc1ccc(C)c(-c2ccnc(Nc3cccc([N+](=O)[O-])c3)n2)c1 [Compound 61, [4-(2,5-Dimethyl-phenyl)-pyrimidin-2-yl]-(3-nitro-phenyl)-amine]",–,–,–,–
1.8 µM,–,–,–,"Cc1ccc(C)c(-c2ccnc(Nc3cccc(O)c3)n2)c1 [Compound 62, 3-[4-(2,5-Dimethyl-phenyl)-pyrimidin-2-ylamino]-phenol]",–,–,–,–
0.7 µM,–,0.06 µM,–,"O=[N+]([O-])c1cccc(-c2ccnc(Nc3cccc(O)c3)n2)c1 [Compound 64, 3-[4-(3-Nitro-phenyl)-pyrimidin-2-ylamino]-phenol]",–,–,–,–
2.8 µM,–,0.63 µM,–,"CC(=O)Nc1cccc(-c2ccnc(Nc3ccccc3)n2)c1 [Compound 66, N-[3-(2-Phenylamino-pyrimidin-4-yl)-phenyl]-acetamide]",–,–,–,–
0.78 µM,0.16 µM,0.15 µM,4.4 µM,"CC(=O)Nc1cccc(-c2ccnc(Nc3cccc(O)c3)n2)c1 [Compound 67, N-{3-[2-(3-Hydroxy-phenylamino)-pyrimidin-4-yl]-phenyl}-acetamide]",–,–,–,–
2.7 µM,–,–,–,"COc1cc(Nc2nccc(-c3cccc(NC(C)=O)c3)n2)cc(OC)c1 [Compound 68, N-{3-[2-(3,5-Dimethoxy-phenylamino)-pyrimidin-4-yl]-phenyl}-acetamide]",–,–,–,–
0.31 µM,0.04 µM,0.14 µM,0.55 µM,"CC(=O)Nc1cccc(-c2ccnc(Nc3cccc([N+](=O)[O-])c3)n2)c1 [Compound 69, N-{3-[2-(3-Nitro-phenylamino)-pyrimidin-4-yl]-phenyl}-acetamide]",–,–,–,–
–,–,0.05 µM,3.8 µM,"COc1ccc(Nc2nccc(-c3cccc(O)c3)n2)cn1 [Compound 74, 3-[2-(6-Methoxy-pyridin-3-ylamino)-pyrimidin-4-yl]-phenol]",–,–,–,–
–,0.003 µM,0.07 µM,–,"COc1cccc(-c2ccnc(Nc3cccc([N+](=O)[O-])c3)n2)c1 [Compound 87, [4-(3-Methoxy-phenyl)-pyrimidin-2-yl]-(3-nitro-phenyl)-amine]",–,–,–,–
–,0.16 µM,0.27 µM,–,"O=[N+]([O-])c1cccc(Nc2nccc(-c3cccc(C(F)(F)F)c3)n2)c1 [Compound 97, (3-Nitro-phenyl)-[4-(3-trifluoromethyl-phenyl)-pyrimidin-2-yl]-amine]",–,–,–,–
–,0.19 µM,–,1.7 µM,"OCC1CCCCN1Cc1cccc(-c2ccnc(Nc3ccc(O)cc3)n2)c1 (centres unmarked) [Compound 106, 4-{4-[3-(2-Hydroxymethyl-piperidin-1-ylmethyl)-phenyl]-pyrimidin-2-ylamino}-phenol]",–,–,–,–
–,0.65 µM,–,1.4 µM,"OCc1cc(CO)cc(Nc2nccc(-c3cccc(CN4CCCCC4CO)c3)n2)c1 (centres unmarked) [Compound 107, (1-{3-[2-(3,5-Bis-hydroxymethyl-phenylamino)-pyrimidin-4-yl]-benzyl}-piperidin-2-yl)-methanol]",–,–,–,–
–,0.04 µM,0.14 µM,–,"COc1ccc(-c2ccnc(Nc3cccc(F)c3)n2)cc1 [Compound 119, (3-Fluoro-phenyl)-[4-(4-methoxy-phenyl)-pyrimidin-2-yl]-amine]",–,–,–,–
–,0.17 µM,–,–,"O=[N+]([O-])c1cccc(Nc2nccc(-c3cc(F)ccc3F)n2)c1 [Compound 123, [4-(2,5-Difluoro-phenyl)-pyrimidin-2-yl]-(3-nitro-phenyl)-amine]",–,–,–,–
